Data from US20070197591A1, “USE OF PALIPERIDONE FOR THE TREATMENT OF A MENTAL DISORDER IN A PSYCHIATRIC PATIENT WITH REDUCED HEPATIC FUNCTION” (priority 2005, published 2007).

Tests used:
[1] = clinical; design: species or system human; details: in vivo
Text: Objectives: to investigate the metabolic pathways of paliperidone and excretion of paliperidone and its metabolites in healthy adult male subjects, both CYP2D6 poor and extensive metabolizers, after administration of a single 1-mg oral dose of ^14C-paliperidone. In addition, to evaluate the safety and tolerability of paliperidone, as well as the relationship between genotypes (CYP2D6, CYP3A4, CYP3A5, UGT1A1, and UGT1A6) and exposure to paliperidone and its metabolites.
Methodology: Single-center, single-dose open-label study of the absorption, metabolism, and excretion (AME) of paliperidone in healthy men (3 extensive and 3 poor metabolizers based on CPY2D6 phenotype). […] Each subject received a single oral dose of ^14C-paliperidone with total radioactivity below […] (16 μCi). Blood samples for plasma pharmacokinetic profile were obtained immediately before study drug administration and 0.5, 1, 1.5, 3, 6, 12, 16, 36, 48, 72, 96, 120, 144 and 168 hours postdose. Blood samples were obtained 2, 4, 8, and 24 hours postdose for determination of ^14C in whole blood. Samples for determination of serum creatinine were obtained 2, 4, 8, and 24 hours postdose. Urine was collected immediately prior to drug administration and from 0-4, 4-8, 8-12, 12-16, 16-24, 24-36, 36-48, 48-72, 96-120, 120-144, and 144-168 hours after study drug administration. Fecal samples were colleted per each stool, once before study drug administration and in the period from 0-168 hours after study drug administration. Collections of urine and feces (per 24 hours) were to continue beyond 168 hours, to a maximum of 336 hours (Day 15) for subjects who excrete radioactivity slowly (2 latest 24-hour urine collections each >2% of total radioactive dose) or have <7 feces stool samples over the 0 to 168-hour period. ^14C radioactivity was measured in plasma, urine, and feces. Aliquots of the 0- through 24-hour urine collections were analyzed for cretinine. Plasma concentrations of paliperidone and risperidone were determined by means of a validated LC-MS/MS method. The ^14C-labeled moiety in plasma and urine was determined by liquid scintillation counting. For all plasma samples, the lower limits of quantification for paliperidone and risperidone were 0.100 ng/mL. For all plasma and urine samples the lower limits of quantification for ^14C-palieridone was 72 dpm/mL (=2.0 n g-eq/mL).
Number of Subjects (Planned and Analyzed): Six healthy men, 3 extensive and 3 poor metabolizers based on CYP2D6 phenotype were to participate in the study. Five subjects, 3 extensive and 2 poor metabolizers, received a single dose of ^14C-paliperidone, completed the study (i.e., completed all assessments through Day 8) and were considered valuable for safety (the Safety Analysis Set), as well as for pharmacokinetics.
Test Product, Dose and Mode of Administration Batch No.: Single oral 0.988-mg dose of ^14C-paliperidone, oral solution (aqueous formulation at a final concentration of 0.0984 mg/mL). Batch No.: unlabeled paliperidone oral solution: ZR076477EIA031 (manufacturing date: 23 Apr. 2003, retest date: 23 Oct. 2004): ^14C-paliperidone: 1763 (expiration date: not applicable)
Criteria for Evaluation: Pharmacokinetics: Plasma paliperidone. ^14C radioactivity and metabolite profiles were determined. Plasma Cmax, tmax, AUClast, AUC24, AUC∞, λZ, t1/2term, CL/F of ^14C and paliperidone were estimated by non-compartmental analysis. Based on the individual urine excretion data and on the serum creatinine concentrations, Ae, Ae, % dose, CLR, CLR,24h and CLer and paliperidone and CLGFR, and CLact of paliperidone were estimated. The excretion half-life of ^14C in urine was also estimated based on excretion rate-time profiles.
Statistical Methods: Pharmacokinetics: Plasma concentrations of ^14C and paliperdone as well as estimates for pharmacokinetic parameters were listed and graphically presented, and the excretion analysis of total radioactivity in plasma, urine and feces were summarized. […]

[2] = Plasma protein binding / unbound fraction of paliperidone and its enantiomers; format: in vitro ADME, human; details: human
Text: Objectives: The primary objective of this study was to investigate the single-dose pharmacokinetics of immediate-release (IR) paliperidone, after oral administration, in subjects having moderate hepatic impairment (“hepatically-impaired subjects”) compared with subjects having normal hepatic function (“healthy subjects”). The secondary objective was to document the plasma protein binding and disposition of the enantiomers of paliperidone. In addition, the tolerability and safety profile of IR paliperidone was compared between hepatically impaired subjects and healthy subjects. Criteria for Evaluation: Pharmacokinetics: Plasma and urine concentrations of the paliperidone enantiomers (+) R078543 and (−) R078544 were determined using an LC-MS/MS method. Concentrations of paliperidone were calculated as the sum of the enantiomer concentrations. In addition, serum and urine concentrations of creatinine were determined for the calculation of CLCR. The protein binding and unbound fraction was determined for the 2 paliperidone enantiomers. The unbound fraction for paliperidone was calculated.

[3] = Safety and tolerability of 1 mg IR paliperidone in healthy and hepatically-impaired subjects; format: in vivo, human
Method: Methodology: This was a single-dose, parallel-group, open-label, single-center, Phase I study of IR paliperidone in subjects having either normal or moderately impaired hepatic function. The groups, consisting of 10 subjects each, were demographically matched with respect to age, weight, sex, and ethnicity. The study consisted of a screening period of up to 3 weeks and an open-label, single-dose treatment period (Days 1 through 5). On Day 1, a single dose of 1 mg IR paliperidone oral solution was administered after a fast of at least 10 hours; subjects continued to fast for 4 hours following study drug administration. The 96-hour follow-up consisted of serial sample collection of blood and urine for pharmacokinetic analysis and safety and tolerability assessments. Subjects remained confined to the study site through the 72-hour pharmacokinetics sampling, and consumed standard institutional meals while in the study site. Subjects were released after the 72-hour sampling, then returned to the study site on Day 5 before the 96-hour pharmacokinetics sampling: end-of-study procedures were performed immediately hereafter. A blood sample for DNA isolation was collected to allow for genetic analysis as necessary. Safety: Adverse events, clinical laboratory tests, including prolactin, vital sign measurements, physical examinations, and 12-lad electrocardiograms (ECGs) were analyzed to assess safety. Safety: All subjects were analyzed; statistical analyses were description [? Does info need to be added here?].

[4] = hepatically-impaired subjects (n = 10)

Cc1nc2n(c(=O)c1CCN1CCC(c3noc4cc(F)ccc34)CC1)CCCC2O (centres unmarked) [Paliperidone, paliperidone]
effect of genotype (CYP2D6, UGT1A1 or UGT1A6) on the plasma exposure of TR and UD [1]: No effect of genotype
share of UD excreted by means of filtration ([1]; male, human): About 50%
CL renal ([1]; male, human, CLR): 53.1 ± 9.47 mL/min
Tmax ([1]; male, human, po): 1.33 ± 0.289 h
cumulative urinary excretion of unchanged paliperidone ([1]; male, human, po, 7 days): 59%
AUC ([1]; male, human, po, AUC24): 0.111 ± 0.022 µg·h/mL
AUC(0-inf) ([1]; male, human, po, AUC∞): 0.187 µg·h/mL
Cmax ([1]; male, human, po, Cmax): 8.85 ng/mL
Tmax ([1]; male, human, po, tmax): 1.3 h
fraction unbound ([2]; Healthy Subjects (n = 10)): 0.279
fraction unbound ([2]; Hepatically-Impaired Subjects (n = 10; paliperidone n = 8)): 0.353
relative increase in unbound fraction vs healthy subjects ([2]; vs healthy subjects, read-out: unbound fraction higher in hepatically-impaired subjects): ~0.27
tolerability ([3]; 1 mg, healthy and hepatically-impaired subjects): tolerated equally well
clinically important abnormal ECG values (including QT values) ([3]; both groups): no subjects had clinically important abnormal ECG values
orthostatic hypotension ([3]; both groups): no subject in either group met the criteria for orthostatic hypotension
subjects with treatment-emergent increase in hepatic enzymes ([3]; healthy subjects): 1
subjects with increases in prolactin levels reported as adverse events ([3]; healthy subjects (n = 10)): 6
subjects with treatment-emergent increase in hepatic enzymes ([3]; hepatically-impaired subjects): 1
subjects reporting dizziness [3, 4]: 2
subjects with increases in prolactin levels reported as adverse events [3, 4]: 8
